In ChEMBL document CHEMBL1201862, “PubChem BioAssay data set” (2004):
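Following 48 hours of exposure in 96-well plates, responses at five concentrations were used to interpolate endpoints linearly. The concentration for 50% growth inhibition is given as GI50.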 Active and inactive are the calls of the source. No stated cut-off is given here; in the data, active = GI50 up to about 1.1 µM and inactive = higher.

How the values were obtained:
Assay in all cases: NCI-60 cell line screen, 48 h
786-0 = test system: 786-0
A549 = test system: A549
ACHN = test system: ACHN
COLO 205 = test system: COLO 205
DU-145 = test system: DU-145
HL-60 = test system: HL-60
HOP-62 = test system: HOP-62
HT-29 = test system: HT-29
IGROV-1 = test system: IGROV-1
KM12 = test system: KM12
M14 = test system: M14
MDA-MB-231 = test system: MDA-MB-231
NCI-H23 = test system: NCI-H23
NCI-H522 = test system: NCI-H522
RPMI-8226 = test system: RPMI-8226
SK-MEL-28 = test system: SK-MEL-28
SNB-19 = test system: SNB-19
SR = test system: SR
UACC-62 = test system: UACC-62
K562 = test system: K562

Measured: GI50

Oc1[nH]c(Nc2ccc(Cl)cc2)nc2ncnc1-2
inactive: 786-0 > 100 µM | A549 > 100 µM | ACHN 63.7 µM | COLO 205 > 100 µM | DU-145 70.1 µM | HL-60 > 100 µM | HOP-62 > 100 µM | HT-29 47.4 µM | IGROV-1 > 100 µM | KM12 > 100 µM | M14 89.1 µM | MDA-MB-231 88.3 µM | NCI-H23 > 100 µM | NCI-H522 90.8 µM | RPMI-8226 > 100 µM | SK-MEL-28 > 100 µM | SNB-19 33.1 µM | SR 44.9 µM | UACC-62 > 100 µM

O=C1CCc2cc([N+](=O)[O-])ccc2O1
inactive: 786-0 > 100 µM | A549 > 100 µM | ACHN > 100 µM | COLO 205 > 100 µM | DU-145 > 100 µM | HL-60 > 100 µM | HOP-62 > 100 µM | HT-29 > 100 µM | IGROV-1 > 100 µM | K562 > 100 µM | M14 > 100 µM | MDA-MB-231 > 100 µM | NCI-H23 > 100 µM | NCI-H522 > 100 µM | RPMI-8226 > 100 µM | SK-MEL-28 > 100 µM | SNB-19 > 100 µM | SR > 100 µM | UACC-62 > 100 µM

COc1ccc(-n2c(N)c(C#N)c(C#N)c2-c2cccc([N+](=O)[O-])c2)cc1
inactive: 786-0 33.9 µM | A549 1.53 µM | ACHN 91 µM | COLO 205 > 100 µM | DU-145 43.3 µM | HL-60 > 100 µM | HOP-62 67.5 µM | HT-29 25.3 µM | IGROV-1 23.8 µM | K562 > 100 µM | KM12 62.5 µM | M14 > 100 µM | MDA-MB-231 67 µM | NCI-H23 > 100 µM | NCI-H522 > 100 µM | RPMI-8226 5.37 µM | SNB-19 49.8 µM | SR 18.7 µM | UACC-62 17.5 µM

Cc1sc2nc3n(c(=O)c2c1C)N=C(c1ccccc1)CS3
inactive: 786-0 47.5 µM | A549 > 100 µM | ACHN > 100 µM | COLO 205 > 100 µM | DU-145 > 100 µM | HL-60 > 100 µM | HOP-62 48.3 µM | HT-29 > 100 µM | IGROV-1 > 100 µM | K562 > 100 µM | KM12 > 100 µM | MDA-MB-231 > 100 µM | NCI-H23 > 100 µM | NCI-H522 > 100 µM | RPMI-8226 > 100 µM | SK-MEL-28 > 100 µM | SR > 100 µM | UACC-62 > 100 µM

CC(C)c1cccc(C(=O)NCCN(C)C)c1[N+](=O)[O-]
inactive: 786-0 > 100 µM | A549 80.2 µM | ACHN > 100 µM | COLO 205 > 100 µM | DU-145 > 100 µM | HL-60 > 100 µM | HOP-62 > 100 µM | HT-29 > 100 µM | IGROV-1 > 100 µM | K562 > 100 µM | KM12 > 100 µM | M14 > 100 µM | MDA-MB-231 > 100 µM | NCI-H23 > 100 µM | NCI-H522 > 100 µM | SK-MEL-28 > 100 µM | SNB-19 > 100 µM | SR > 100 µM | UACC-62 > 100 µM

CC(C)(C)OC(=O)n1cc(C2CN(O)C(=O)C23CCC(=O)N3Cc2ccccc2)c2ccccc21 (centres undefined)
inactive: 786-0 45.9 µM | A549 35.3 µM | COLO 205 36.1 µM | DU-145 60.1 µM | HL-60 54.2 µM | HOP-62 93.1 µM | HT-29 39.9 µM | IGROV-1 18.8 µM | K562 78.7 µM | KM12 44.1 µM | M14 > 100 µM | MDA-MB-231 28.8 µM | NCI-H23 61.1 µM | NCI-H522 14.1 µM | RPMI-8226 31.6 µM | SNB-19 68.7 µM | SR 44.6 µM | UACC-62 68.1 µM

Cc1ccc(/N=N/C(=O)NNc2ccc(C)cc2Br)c(Br)c1
inactive: 786-0 18.4 µM | A549 24.4 µM | ACHN 26.7 µM | DU-145 19.9 µM | HL-60 18.7 µM | HOP-62 19.6 µM | HT-29 40.9 µM | IGROV-1 20.8 µM | K562 16.4 µM | M14 24.5 µM | MDA-MB-231 26.3 µM | NCI-H23 24.5 µM | NCI-H522 26.1 µM | RPMI-8226 20 µM | SK-MEL-28 21.4 µM | SNB-19 32.5 µM | SR 14.7 µM | UACC-62 10.9 µM

O=S1(=O)c2ccccc2C(=NO)c2ccccc21
inactive: 786-0 > 100 µM | A549 > 100 µM | ACHN > 100 µM | COLO 205 > 100 µM | DU-145 > 100 µM | HL-60 14.8 µM | HOP-62 > 100 µM | HT-29 > 100 µM | IGROV-1 64 µM | K562 68.2 µM | KM12 > 100 µM | M14 > 100 µM | MDA-MB-231 > 100 µM | NCI-H23 > 100 µM | NCI-H522 37.1 µM | RPMI-8226 59.4 µM | SK-MEL-28 > 100 µM | SR 29.8 µM | UACC-62 > 100 µM
